Assay results from patent US20260076982A1, “Prodrugs of Cannbidiol [CBD]-Type Phytocannabinoids and a Process for Preparation Thereof” (priority 2022, published 2026).

Key:
[1] = Ex vivo human plasma stability / release kinetic study of CBD prodrugs; type: in vitro ADME; details: human blood plasma with citrate buffer; for prodrug left after 24 h / concentration of cannabidiol (B1) released from prodrug after 24 h / concentration of cannabidiol (B1) at start of release: 37° C.; for stability / conversion of prodrug in plasma: over 24 h; for concentration of cannabidiol (B1) released from prodrug after 24 h: HPLC; for concentration of cannabidiol (B1) at start of release: initial value of the release range
Protocol: For the preparation of citrate buffer solution (pH=7.6), 100 ml of HPLC water, 0.25 M sucrose and 40 mM sodium citrate were taken.
To construct a calibration curve, […] different concentration such as 0.78, 1.56, 3.12, 6.25, 12.5, 25, 50 mg/ml of CBD based prodrugs and the parent cannabidiol were prepared. All sample were analyzed by 4.6×250 mm, 5 μm end capped RP-C18 column and the mobile phase containing buffer (0.1% formic acid in water and 0.1% formic acid in acetonitrile) and in some case methanol were used at the flow rate of 1 mL/min at column temperature of 25° C. at 210 nm, 190 nm, 254 nm wavelength range. A volume of 10 μL was injected and a total run time of the assay range was between 15-40 mins. The markers were estimated by HPLC using gradient technique.
For the preparation of plasma sample, fresh 20 ml of human blood was taken to which 2 ml of citrate buffer was added and then vortex it for about 5 minutes. Immediately after this, the mixture was centrifuged at 8000 rpm for 20 minutes, resulting in the separation of two-layer like RBC and plasma (ethical approval number 1EC/GMC/Cat A/2020/267).
To check the stability of prodrugs in plasma, stock solution of prodrug in DMSO (5 mg/2 ml) was prepared and placed at −20° C. The plasma sample of 50 μl was taken in different eppendorf's followed by the addition of 5 μl prodrug solution, vertex for 2 min., incubated at 37° C. at the different time point (Schedule provided in Table 1). After 24 h, all the sample were added with 200 μl MeOH with the help of vertex for about 2 minutes followed by centrifuge for about 10 minutes with 4000 rpm and two layers of sample were separated. The upper layer of methanol sample was taken and immediately the methanol sample was analyzed by 4.6×250 mm, 5 μm end capped RP-C18 column and the mobile phase containing buffer (0.1% formic acid in water and 0.1% formic acid in acetonitrile) and in some case methanol were used at the flow rate of 1 mL/min at column temperature of 25° C. at 210 nm, 190 nm, 254 nm wavelength range. A volume of 10 μL was injected and a total run time of the assay range was 15-40 mins. The markers were estimated by HPLC using gradient technique. The results are depicted in FIG. 1 to FIG. 10.

[2] = published studies; cited from earlier work

Row | SMILES | prodrug left after 24 h [1] | concentration of prodrug at the initial time point (Pre-treatment) [1] | stability / conversion of prodrug in plasma [1] | further results
1 | C=C(C)[C@@H]1CCC(C)=C[C@H]1c1c(O)cc(CCCCC)cc1OC(=O)CN1CCN(C)CC1 [Compound A7a, O-{2-(4-methylpiperazin-1-yl)acetyl} cannabidiol] | 0.7% | 49.6% |  | 
2 | C=C(C)[C@@H]1CCC(C)=C[C@H]1c1c(OC(=O)CN2CCOCC2)cc(CCCCC)cc1OC(=O)CN1CCOCC1 [Compound A1b, O,O-bis-(2-morpholinoacetyl) cannabidiol] |  |  | immediately converted into mono substituted CBD derivative | 
3 | C=C(C)[C@@H]1CCC(C)=C[C@H]1c1c(O)cc(CCCCC)cc1OC(=O)CN1CCOCC1 [Compound A1a, O-(2-morpholinoacetyl) cannabidiol] | 5.5% | 49.1% |  | 
4 | C=C(C)[C@@H]1CCC(C)=C[C@H]1c1c(O)cc(CCCCC)cc1OC(=O)CN1CCC(c2ccccc2)CC1 [Compound A2a, O-{2-(4-phenylpiperidin-1-yl)acetyl} cannabidiol] |  |  | quite stable | 
5 | C=C(C)[C@@H]1CCC(C)=C[C@H]1c1c(O)cc(CCCCC)cc1OC(=O)CN1CCN(C(C)C)CC1 [Compound A6a, O-{2-(4-isopropylpiperazin-1-yl)acetyl} cannabidiol] | 11.1% | 51.3% |  | concentration of cannabidiol (B1) released from prodrug after 24 h [1]: 26.8%; concentration of cannabidiol (B1) at start of release [1]: 0.6%
6 | C=C(C)[C@@H]1CCC(C)=C[C@H]1c1c(O)cc(CCCCC)cc1OC(=O)CN1CCCC1 [Compound A10a, O-{2-(pyrrolidin-1-yl)acetyl} cannabidiol] | 1.9% | 51.3% |  | 
7 | C=C(C)[C@@H]1CCC(C)=C[C@H]1c1c(O)cc(CCCCC)cc1OC(=O)CN1CCN(c2ccccc2)CC1 [Compound A8a, O-{2-(4-phenylpiperazin-1-yl)acetyl} cannabidiol] |  |  | quite stable | 
8 | C=C(C)[C@@H]1CCC(C)=C[C@H]1c1c(O)cc(CCCCC)cc1O [Compound B1, cannabidiol] |  |  |  | plasma protein binding [2]: > 94%
9 | C=C(C)[C@@H]1CCC(C)=C[C@H]1c1c(O)cc(CCCCC)cc1OC(=O)CN1CCC(O)CC1 [Compound A3a, O-{2-(4-hydroxypiperidin-1-yl)acetyl} cannabidiol] | below detection limit | 49.2% |  | 
10 | C=C(C)[C@@H]1CCC(C)=C[C@H]1c1c(OC(=O)CN2CCN(C3CC3)CC2)cc(CCCCC)cc1OC(=O)CN1CCN(C2CC2)CC1 [Compound A5b, O,O-bis-{2-(4-cyclopropylpiperazin-1-yl)acetyl} cannabidiol] |  |  | immediately converted into mono substituted CBD derivative | time after which release of CBD (B1) started [1]: > 16 h; concentration of cannabidiol (B1) released from prodrug after 24 h [1]: 8.8%
11 | C=C(C)[C@@H]1CCC(C)=C[C@H]1c1c(O)cc(CCCCC)cc1OC(=O)CN1CCN(C2CC2)CC1 [Compound A5a, O-{2-(4-cyclopropylpiperazin-1-yl)acetyl} cannabidiol] | 11.1% | 51.4% |  | concentration of cannabidiol (B1) released from prodrug after 24 h [1]: 17.4%; concentration of cannabidiol (B1) at start of release [1]: 0%
